The record followed here is ChEMBL document CHEMBL1201862, “PubChem BioAssay data set” (2004).

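Briefly, cells in 96-well plates were exposed to five compound concentrations for 48 h, and endpoints were estimated by linear interpolation. At the GI50, growth is halved.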 The source made the active and inactive calls. No stated cut-off is given here; in the data, active = GI50 up to about 1.1 µM and inactive = higher.

Test systems include ACHN; MDA-MB-435; CAKI-1; NCI/ADR-RES; NCI-H522; OVCAR-4; UACC-257; BT-549; COLO 205; OVCAR-8; SR; HL-60; U-251; OVCAR-3; SNB-19; DU-145; NCI-H23; HCT-116; PC-3; IGROV-1.
What all share (assay): NCI-60 cell line screen, 48 h

In the case of `COc1ccc(N2C(=O)/C(=C\c3cc(OC)c(OC)c(OC)c3)SC2c2ccccc2)cc1` (stereo unspecified), the GI50 with ACHN is 62.4 µM (inactive); with MDA-MB-435 it was 27.4 µM (inactive); with CAKI-1, > 100 µM (inactive); in the experiment on NCI/ADR-RES it was 34.8 µM (inactive); in the experiment with NCI-H522, 16.6 µM (inactive); with OVCAR-4, 79.8 µM (inactive). Further, the GI50 with UACC-257 is 57.3 µM (inactive); in the experiment on BT-549 it was 26.1 µM (inactive); in the experiment with COLO 205, 62.5 µM (inactive); in the experiment on OVCAR-8 it was 95.9 µM (inactive); in the experiment with SR it was 28.4 µM (inactive); with HL-60, 10.4 µM (inactive). The GI50 with U-251 is 56.5 µM (inactive); in the experiment with OVCAR-3 it was > 100 µM (inactive); in the experiment with SNB-19, > 100 µM (inactive); in the experiment on DU-145, > 100 µM (inactive); in the experiment on NCI-H23 it was 33.1 µM (inactive); with HCT-116, 71.9 µM (inactive).

As for `COc1ccc(NC(=S)Nc2c(C)n(C)n(-c3ccccc3)c2=O)cc1`, the GI50 with ACHN, in the experiment with MDA-MB-435, in the experiment on CAKI-1, in the experiment on PC-3, in the experiment with NCI/ADR-RES and in the experiment with NCI-H522 was > 100 µM (inactive) in each case. The GI50 in the experiment on UACC-257, with BT-549, in the experiment with COLO 205, with IGROV-1, in the experiment with OVCAR-8 and in the experiment on HL-60 was > 100 µM (inactive) throughout. The GI50 in the experiment with U-251, in the experiment on OVCAR-3, in the experiment on SNB-19, with DU-145, in the experiment with NCI-H23 and with HCT-116 was > 100 µM (inactive) in each case.

Take `O=C(CSc1nc2ccc(I)cc2c(=O)n1Cc1ccccc1)NN1C(=O)CSC1c1ccccc1` (stereo unspecified): the GI50 in the experiment with ACHN was 18.2 µM (inactive); with MDA-MB-435 it was 27.2 µM (inactive); with CAKI-1, 3.13 µM (inactive); in the experiment with PC-3, 32.2 µM (inactive); in the experiment with NCI/ADR-RES, 26.5 µM (inactive); with NCI-H522, 15.6 µM (inactive). Also, the GI50 is 25.8 µM (inactive) in the experiment on OVCAR-4; 20.4 µM (inactive) in the experiment with UACC-257; 15.3 µM (inactive) in the experiment with COLO 205; 22.6 µM (inactive) with IGROV-1; 32.7 µM (inactive) in the experiment on OVCAR-8; 26.5 µM (inactive) in the experiment with SR. Moreover, the GI50 was 4.68 µM (inactive) in the experiment with HL-60; 29.6 µM (inactive) in the experiment with U-251; 16.1 µM (inactive) in the experiment on OVCAR-3; 40.7 µM (inactive) in the experiment on SNB-19; 26.4 µM (inactive) with DU-145; 18.3 µM (inactive) in the experiment on NCI-H23. In addition, the GI50 in the experiment with HCT-116 was 24 µM (inactive).

On to `COc1cc([C@@H]2c3cc4c(cc3C[C@H]3COC(=O)[C@@H]32)OCO4)cc(OC)c1OC` [DESOXYPODOPHYLLOTOXIN], for which the GI50 was 0.00393 µM (active) with ACHN; 0.00261 µM (active) in the experiment with MDA-MB-435; 0.00711 µM (active) in the experiment with CAKI-1; 0.00353 µM (active) in the experiment with PC-3; 0.00828 µM (active) in the experiment with UACC-257; < 0.01 µM (active) in the experiment with BT-549. Also, the GI50 with IGROV-1 was 0.0103 µM (active); in the experiment with OVCAR-8 it was 0.00721 µM (active); with SR, 0.00376 µM (active); with HL-60, 0.00713 µM (active); in the experiment on U-251, 0.00634 µM (active); with SNB-19, 0.0092 µM (active). In addition, the GI50 in the experiment on DU-145 is 0.00273 µM (active); in the experiment with NCI-H23, 0.00714 µM (active).

On to `Cc1ccc(S(=O)(=O)N/N=C2\CC3C4CCC3C2C4)cc1` (stereo unspecified), for which the GI50 with ACHN, with MDA-MB-435, with CAKI-1, in the experiment on PC-3, with NCI/ADR-RES and with NCI-H522 was > 100 µM (inactive) throughout. Further, the GI50 in the experiment with OVCAR-4, in the experiment on UACC-257, with COLO 205, in the experiment with IGROV-1, with OVCAR-8 and in the experiment with SR was > 100 µM (inactive) in each case. The GI50 with HL-60, with U-251, in the experiment with OVCAR-3, in the experiment on SNB-19, in the experiment on DU-145 and in the experiment on NCI-H23 was > 100 µM (inactive) each time. For the same molecule, in the experiment on HCT-116, the GI50 is > 100 µM (inactive).

For the molecule `CC(C)/C(Cl)=N\OC(=O)Nc1ccc(F)cc1`, the GI50 in the experiment on ACHN is 3.55 µM (inactive); with PC-3, 17.4 µM (inactive); with NCI/ADR-RES it was 6.9 µM (inactive); with NCI-H522 it was 1.52 µM (inactive); in the experiment on UACC-257, 14.3 µM (inactive); in the experiment on BT-549, 11.2 µM (inactive). Besides, the GI50 in the experiment on COLO 205 is 2.63 µM (inactive); in the experiment with IGROV-1, 14.8 µM (inactive); in the experiment with OVCAR-8, 12.8 µM (inactive); with SR, 1.68 µM (inactive); in the experiment on HL-60 it was 1.55 µM (inactive); in the experiment with U-251, 15.6 µM (inactive). For the same molecule, the GI50 in the experiment with OVCAR-3 was 8.22 µM (inactive); in the experiment with SNB-19 it was 19.2 µM (inactive); in the experiment on DU-145, 16.3 µM (inactive); with NCI-H23, 18.2 µM (inactive); with HCT-116, 6.61 µM (inactive).

As for `CN(C)c1nc(Cl)c2c(-c3ccccc3)c(-c3ccccc3)oc2n1`, the GI50 with ACHN was 70 µM (inactive); in the experiment with MDA-MB-435 it was > 100 µM (inactive); with CAKI-1 it was 23.2 µM (inactive); in the experiment with NCI/ADR-RES it was 82.4 µM (inactive); in the experiment with NCI-H522, 17.5 µM (inactive); in the experiment with OVCAR-4, 75.7 µM (inactive). Also, the GI50 in the experiment on UACC-257 was > 100 µM (inactive); in the experiment on BT-549 it was 29.7 µM (inactive); in the experiment with COLO 205 it was > 100 µM (inactive); in the experiment on IGROV-1, 80.7 µM (inactive); in the experiment with OVCAR-8, > 100 µM (inactive); with SR it was 21.8 µM (inactive). Moreover, the GI50 with HL-60 was 12.2 µM (inactive); in the experiment with U-251 it was > 100 µM (inactive); in the experiment with SNB-19, > 100 µM (inactive); in the experiment with DU-145, 52.4 µM (inactive); in the experiment with NCI-H23, 41.3 µM (inactive); with HCT-116, 31.2 µM (inactive).

For the molecule `CCOC(=O)C(C(=O)OCC)C(=S)NC1OC(COC(C)=O)C(OC(C)=O)C(OC(C)=O)C1OC(C)=O` (stereo unspecified), the GI50 in the experiment with MDA-MB-435, with CAKI-1, with NCI/ADR-RES, with NCI-H522, with OVCAR-4 and in the experiment on UACC-257 was > 100 µM (inactive) throughout. Besides, the GI50 in the experiment with BT-549, in the experiment with COLO 205, in the experiment on IGROV-1, in the experiment on OVCAR-8, in the experiment with SR and in the experiment on HL-60 was > 100 µM (inactive) in each case. Also, the GI50 with U-251, in the experiment with OVCAR-3, in the experiment with SNB-19, in the experiment on DU-145, in the experiment with NCI-H23 and in the experiment with HCT-116 was > 100 µM (inactive) in each case.

As to `CC[n+]1cnc(N)c2c(-c3ccc(Cl)cc3)cn(-c3ccc(C)cc3)c21`, the GI50 with ACHN is 12.9 µM (inactive); with MDA-MB-435, 11.5 µM (inactive); in the experiment with CAKI-1, 16 µM (inactive); in the experiment with PC-3, 10.5 µM (inactive); in the experiment with NCI/ADR-RES, 12.9 µM (inactive); in the experiment on NCI-H522, 15.5 µM (inactive). Besides, the GI50 in the experiment with OVCAR-4 was 2.77 µM (inactive); with UACC-257, 2.82 µM (inactive); with COLO 205, 3.78 µM (inactive); in the experiment on IGROV-1, 13.1 µM (inactive); in the experiment on OVCAR-8 it was 18.5 µM (inactive); in the experiment with SR it was 4.6 µM (inactive). For the same molecule, the GI50 in the experiment on HL-60 is 24.8 µM (inactive); in the experiment with U-251, 11.9 µM (inactive); in the experiment with OVCAR-3 it was 9.38 µM (inactive); in the experiment with SNB-19 it was 15.5 µM (inactive); in the experiment on DU-145 it was 17.9 µM (inactive); with NCI-H23, 19.1 µM (inactive). Further, the GI50 in the experiment on HCT-116 was 9.4 µM (inactive).

For `COP(=O)(CP(=O)(OC)OCCC(C)CCC=C(C)C)OC` (stereo unspecified), the GI50 in the experiment with ACHN, with MDA-MB-435, in the experiment on CAKI-1, in the experiment with PC-3, in the experiment on NCI/ADR-RES and with NCI-H522 was > 100 µM (inactive) in each case. Further, the GI50 with OVCAR-4, in the experiment with UACC-257, with BT-549, in the experiment on COLO 205, in the experiment with IGROV-1 and in the experiment on OVCAR-8 was > 100 µM (inactive) each time. Also, the GI50 in the experiment with U-251 was 26.7 µM (inactive); in the experiment with OVCAR-3 it was > 100 µM (inactive); with SNB-19 it was > 100 µM (inactive); in the experiment on NCI-H23 it was > 100 µM (inactive); in the experiment with HCT-116, > 100 µM (inactive).

As to `CCCCS(=O)(=O)CCC(N)C(=O)O` (stereo unspecified), the GI50 with ACHN, in the experiment with CAKI-1, with PC-3, in the experiment on NCI/ADR-RES, in the experiment on NCI-H522 and in the experiment on OVCAR-4 was > 100 µM (inactive) throughout. In addition, the GI50 with UACC-257, in the experiment on BT-549, with COLO 205, in the experiment on IGROV-1, in the experiment with OVCAR-8 and in the experiment on SR was > 100 µM (inactive) each time. Further, the GI50 in the experiment with HL-60, in the experiment with U-251, in the experiment on OVCAR-3, in the experiment on SNB-19, with DU-145 and in the experiment on NCI-H23 was > 100 µM (inactive) throughout. Besides, the GI50 in the experiment with HCT-116 was > 100 µM (inactive).
